Source: ChEMBL document CHEMBL1201862, “PubChem BioAssay data set” (2004)
Each block holds one compound with its values, some of them ahead of it. Calls of active or inactive are those of the source.

Assays:
[1] = target: T1, Cytochrome P450 1A2 (Homo sapiens, UniProt P05177);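 note: PubChem cytochrome P450 panel assay, CYP1A2 panel member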
T1 sequence (P05177 whole entry): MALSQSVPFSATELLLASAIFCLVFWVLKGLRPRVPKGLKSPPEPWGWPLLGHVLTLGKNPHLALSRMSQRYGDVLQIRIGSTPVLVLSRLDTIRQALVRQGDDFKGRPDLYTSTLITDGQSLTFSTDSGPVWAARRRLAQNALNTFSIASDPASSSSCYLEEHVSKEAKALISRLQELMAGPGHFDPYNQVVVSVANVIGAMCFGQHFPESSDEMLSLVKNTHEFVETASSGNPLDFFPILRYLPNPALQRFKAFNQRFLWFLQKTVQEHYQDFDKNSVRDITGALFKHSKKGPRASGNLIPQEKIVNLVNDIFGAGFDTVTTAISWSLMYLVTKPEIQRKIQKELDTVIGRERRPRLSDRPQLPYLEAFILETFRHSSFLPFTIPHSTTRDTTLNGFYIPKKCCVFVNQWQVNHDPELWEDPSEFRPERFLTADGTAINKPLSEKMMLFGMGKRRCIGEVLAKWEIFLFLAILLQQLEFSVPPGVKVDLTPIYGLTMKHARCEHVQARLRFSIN

[2] = target: Cytochrome P450 3A4 (Homo sapiens, UniProt P08684);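 note: CYP3A4 tested as one member of a cytochrome P450 panel screen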
Chain of Cytochrome P450 3A4 (P08684 whole entry): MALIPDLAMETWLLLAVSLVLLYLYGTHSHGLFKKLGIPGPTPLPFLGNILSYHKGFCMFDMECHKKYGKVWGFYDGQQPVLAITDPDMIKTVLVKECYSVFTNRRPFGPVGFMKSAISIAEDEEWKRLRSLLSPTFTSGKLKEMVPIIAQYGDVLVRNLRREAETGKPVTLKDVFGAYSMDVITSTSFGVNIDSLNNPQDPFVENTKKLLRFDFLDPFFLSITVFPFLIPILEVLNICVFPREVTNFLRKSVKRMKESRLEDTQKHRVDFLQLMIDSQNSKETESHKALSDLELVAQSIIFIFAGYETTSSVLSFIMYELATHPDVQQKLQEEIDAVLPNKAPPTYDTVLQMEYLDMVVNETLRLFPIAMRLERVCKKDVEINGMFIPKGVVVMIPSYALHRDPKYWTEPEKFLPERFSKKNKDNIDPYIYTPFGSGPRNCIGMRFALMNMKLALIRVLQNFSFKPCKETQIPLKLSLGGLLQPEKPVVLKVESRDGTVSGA

[3] = Luminescence Cell-Based Dose Retest to Confirm Inhibitors of Cancer Stem Cells. [Related pubchem assays (depositor defined):AID2717, AID2721]; format: functional; conditions: Homo sapiens
[4] = inhibitors of intracellular T. cruzi replication, confirmation, NIH3T3 host cells, beta-gal luminescence (AID 2044); format: functional, cell-based;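 note: intracellular parasites grown in NIH/3T3 mouse fibroblasts as host cells; luminescent beta-galactosidase reporter signal from transgenic T. cruzi replicating inside host cells; inhibitors lower the luminescence signal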
[5] = cytotoxicity toward NIH3T3 fibroblasts, dose response, counter-screen, cell-based, ATP luminescence, mouse fibroblasts (AID 2010); format: functional;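 note: cells exposed to compound for about 90 hours before reading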
[6] = test system: Streptococcus sp. 'group A'; test: growth inhibition of control SK(-) GAS strain, dose response, counter-screen for streptokinase expression inhibitor project, luminescence, kanamycin, BacTiterGlo, confirmation (AID 1900); format: functional, organism-based
[7] = test system: Streptococcus; test: Group A Streptococcus viability loss, dose response, counter-screen for streptokinase expression inhibitor project, luminescence, BacTiterGlo (AID 1915); format: functional, organism-based;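 note: potency for reduction of bacterial viability or growth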
[8] = target: T2, Rac GTPase-activating protein 1 (Homo sapiens, UniProt Q9H0H5); test: MgcRacGAP GTPase-activating activity inhibitors, confirmation, biochemical, ADP Hunter fluorescence, primary and confirmatory (AID 624330); format: functional
T2 sequence (Q9H0H5 whole entry): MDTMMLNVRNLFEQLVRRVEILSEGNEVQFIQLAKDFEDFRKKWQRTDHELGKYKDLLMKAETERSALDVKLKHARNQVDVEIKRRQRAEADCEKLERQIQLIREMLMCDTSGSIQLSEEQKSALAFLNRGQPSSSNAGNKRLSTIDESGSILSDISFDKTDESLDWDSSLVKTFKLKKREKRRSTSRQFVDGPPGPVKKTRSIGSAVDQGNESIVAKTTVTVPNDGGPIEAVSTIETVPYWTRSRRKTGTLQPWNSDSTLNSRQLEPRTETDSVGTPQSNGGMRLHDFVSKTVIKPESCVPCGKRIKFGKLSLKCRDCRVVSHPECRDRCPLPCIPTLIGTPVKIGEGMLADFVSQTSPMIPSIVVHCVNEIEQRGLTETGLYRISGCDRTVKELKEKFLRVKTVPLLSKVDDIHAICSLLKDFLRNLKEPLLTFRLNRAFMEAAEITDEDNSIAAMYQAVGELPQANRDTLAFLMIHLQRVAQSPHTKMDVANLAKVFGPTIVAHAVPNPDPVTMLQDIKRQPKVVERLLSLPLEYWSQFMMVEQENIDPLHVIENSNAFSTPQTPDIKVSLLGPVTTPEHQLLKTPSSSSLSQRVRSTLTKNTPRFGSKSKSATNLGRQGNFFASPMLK

AC50 [1]: 39.8 µM (inconclusive) | AC50 [2]: 25.1 µM (inconclusive)
Compound: COC(=O)c1ccc(N2CCN(c3ccccc3)CC2)c(NC(=O)C2CC2)c1

Compound: CCC(C)c1ccccc1NC(=O)COC(=O)c1ccc2[nH]c3c(c2c1)CCCC3 (stereo not given)
AC50 [3]: 2.09 µM (active)

AC50 [2]: 15.8 µM (inconclusive)
Compound: COc1ccc(NC(=O)N2CCCC3(CCN(C(=O)c4cnccn4)CC3)C2)cc1

AC50 [1]: 3.16 µM (inconclusive)
Compound: CCCN1C[C@H](CSC)C[C@H]2c3cccc4[nH]cc(c34)C[C@@H]21

AC50 [1]: 6.31 µM (inconclusive)
Compound: COc1ccc(-c2nc3cnc(OC)nc3n(CCC#N)c2=O)cc1

AC50 [1]: 25.1 µM (inconclusive) | AC50 [2]: 20 µM (inconclusive)
Compound: O=C(Nc1ccccc1)N1CCCC2(CCNCC2)C1

Compound: Cc1cccc(NC(=S)N(CCc2nc3cc(C)c(C)cc3[nH]2)Cc2cccnc2)c1
EC50 [4]: 0.853 µM (active) | EC50 [5]: > 60 µM (not active)

AC50 [2]: 31.6 µM (inconclusive)
Compound: Cc1ccc(C)c(-n2c(Cc3cc(O)nc(O)n3)nnc2SCC(=O)NCC2CCCO2)c1 (stereo not given)

Compound: Cc1ccc(Cl)cc1N1CCN(C(=O)c2ccc(CN3CCOCC3)cc2)CC1
EC50 [4]: 2.13 µM (active) | EC50 [5]: 4.63 µM (active)

Compound: N#CC1=C(N)NC(SCc2ccc(Br)cc2)=C(C#N)C12CCCCC2
EC50 [4]: 3.29 µM (active) | EC50 [5]: > 60 µM (not active)

Compound: CCn1c(NC(=O)c2cccc(Cn3cc(Cl)cn3)c2)nc2ccccc21
EC50 [6]: 3.97 µM (active) | EC50 [7]: 18.6 µM (active)

Compound: COc1cccc(-c2sc3ccc(OC)cc3c2C#CCC(C)O)c1 (stereo not given)
AC50 [3]: 3.66 µM (active)

Compound: COc1ccc(C(c2nnnn2Cc2ccccc2)N2CCN(c3nc4ccccc4s3)CC2)cc1 (stereo not given)
EC50 [4]: 3 µM (active) | EC50 [5]: 8.63 µM (active)

Compound: CCO/C(O)=C(/C#N)c1nc2ccccc2nc1N(CC(C)C)CC(C)C
AC50 [3]: 6.07 µM (active)

Compound: CC(C)NCC(O)COC1C2CC3CC(C2)CC1C3 (stereo not given)
EC50 [4]: 1.14 µM (active) | EC50 [5]: > 60 µM (not active)

AC50 [2]: 15.8 µM (inconclusive)
Compound: Cn1c(=O)c2c(nc(Cl)n2Cc2ccc(Cl)c(Cl)c2)n(C)c1=O

AC50 [1]: 12.6 µM (inconclusive) | AC50 [2]: 15.8 µM (inconclusive)
Compound: CN1CCN(c2ncc3nc(CCc4ccccc4)c(=O)n(C4CC4)c3n2)CC1

Compound: CCCCNC(=O)CCc1c(C)nc2c(c(C)nn2-c2ccccc2)c1C
EC50 [4]: 1.39 µM (active) | EC50 [5]: > 30 µM (not active)

Compound: CCOc1cc(-c2cc(-c3ccc(NC(C)=O)cc3)nc(N)c2C#N)ccc1O
EC50 [6]: 0.651 µM (active) | EC50 [7]: 6.34 µM (active)

Compound: Cc1nn(CC(=O)NC2C(=O)N3C(C(=O)O)=C(CSc4nnnn4C)CSC23)cc1Br (stereo not given)
EC50 [6]: 0.072 µM (active) | EC50 [7]: 0.316 µM (active)

Compound: COc1cccc(Oc2nc(-c3ccncc3)nc3ccccc23)c1
EC50 [4]: 2.41 µM (active) | EC50 [5]: 7.86 µM (active)

AC50 [1]: 15.8 µM (inconclusive)
Compound: Cn1cc(-c2nc3cnc(N4CCNCC4)nc3n(C)c2=O)c2ccccc21

Compound: CN(CCc1ccccn1)Cc1ccc(Cl)c(Cl)c1
EC50 [4]: 0.244 µM (active) | EC50 [5]: > 60 µM (not active)

Compound: CN(C)C=O.O=[N+]([O-])c1cccc(COc2ncnc3cc([N+](=O)[O-])ccc23)c1
EC50 [4]: 1.93 µM (active) | EC50 [5]: > 60 µM (not active)

AC50 [1]: 5.01 µM (inconclusive)
Compound: CC1=C(C(=O)Nc2cccnc2)C(c2cccnc2)n2nc(-c3cccs3)nc2N1 (stereo not given)

Compound: COc1ccc(-n2nc([N+](=O)[O-])c(NCCc3cccc(C)c3)[n+]2[O-])cc1
EC50 [4]: 0.48 µM (active) | EC50 [5]: > 60 µM (inconclusive)

IC50 [8]: 46.9 µM (active)
Compound: O=c1ccn(-c2ccccc2)[nH]1

Compound: O=[N+]([O-])c1ccc(Nc2nc(NC3CCCCC3)nc(N3CCCC3)n2)cc1
EC50 [4]: 1.75 µM (active) | EC50 [5]: > 60 µM (not active)

Compound: COC(=O)c1ccc(-c2noc(CN(Cc3ccncc3)CC3CCCO3)n2)cc1 (stereo not given)
EC50 [4]: 2.46 µM (active) | EC50 [5]: > 60 µM (inconclusive)

Compound: Cc1c(C)n(CCCN(C)C)c2ncnc(Nc3ccc(F)cc3)c12
EC50 [4]: 0.9 µM (active) | EC50 [5]: > 30 µM (not active)

AC50 [2]: 15.8 µM (inconclusive)
Compound: CN1CCN(c2ccnc(-c3ccc(N(C)C)cc3)n2)CC1

Compound: Nc1nc2c(C(=O)NCc3cccs3)nnn2c2cccc(Cl)c12
AC50 [1]: 1 µM (inconclusive)

AC50 [2]: 3.16 µM (inconclusive)
Compound: C#CCCCO/N=C1/C[C@@H](O)[C@@H](O)[C@@H]2[C@@H]3C(=O)N(CCC(=O)OCC)C(=O)[C@H]3CC[C@@H]12

Compound: CCc1ccccc1NC(=O)CN(c1ccc(OC)cc1OC)S(=O)(=O)c1ccccc1[N+](=O)[O-]
EC50 [4]: 2.25 µM (active) | EC50 [5]: > 60 µM (not active)

IC50 [8]: 84.4 µM (active)
Compound: COc1ccc(CN(C)CC(=O)Nc2ccc(Cl)cc2C(F)(F)F)c(OC)c1

IC50 [8]: 15 µM (active)
Compound: Oc1ccc(Nc2ncnc3c2oc2ccccc23)cc1

Compound: Clc1ccc(COc2cccc(CNCc3ccncc3)c2)cc1
EC50 [4]: 3.42 µM (active) | EC50 [5]: > 60 µM (not active)

Compound: COc1ccc(-c2c[n+](CC(=O)N3c4ccccc4Sc4ccccc43)c3n2CCC3)cc1
EC50 [4]: 0.648 µM (active) | EC50 [5]: > 60 µM (not active)

AC50 [2]: 15.8 µM (inconclusive)
Compound: COCCNC(=O)c1onc(CSc2ccc(Cl)cc2)c1C(=O)O

Compound: Cc1c(C(=O)Nc2ccc3c(c2)OCCO3)sc2nc(-c3ccccc3)cn12
EC50 [6]: 3.01 µM (active) | EC50 [7]: 7.44 µM (active)

Compound: CCc1ccc(-c2cc3c(=O)n(CC(=O)NCCN4CCCCC4C)nc(C)n3n2)cc1 (stereo not given)
AC50 [3]: 2.45 µM (active)

AC50 [1]: 10 µM (inconclusive)
Compound: O=C(O)[C@@H]1CCN(Cc2oc(CO)cc(=O)c2O)C1

AC50 [1]: 6.31 µM (inconclusive)
Compound: CC1=C(/C=C\C(=O)O)C(C)(C)CCC1

AC50 [2]: 0.0562 µM (inconclusive)
Compound: CCS(=O)(=O)N1CCC(C(=O)NCCCOC)CC1

IC50 [8]: 41.9 µM (active)
Compound: Oc1ccc2ccc(Cl)cc2c1

IC50 [8]: 47.1 µM (active)
Compound: COc1cc(/C=N/Nc2nc(C)cc(C)n2)ccc1O

IC50 [8]: 90.1 µM (active)
Compound: COc1cc(C(=O)N/N=C/c2cn(Cc3ccccc3)c3ccccc23)ccc1O

Compound: COc1ccc(/C=N/N(Cc2ccccc2)c2ccccc2)cc1O
AC50 [3]: 6.09 µM (active)

IC50 [8]: 54.4 µM (active)
Compound: COc1cc(/C=N/N=C2\CC3CCC2(C)C3(C)C)ccc1O (stereo not given)

Compound: Cc1nc2ccc(Br)cn2c1C(=O)N/N=C\c1ccc(C(C)C)cc1
AC50 [3]: 2.75 µM (active)

Compound: COc1ccc2[nH]c3c(c2c1)CCN=C3C
AC50 [2]: 5.01 µM (inconclusive)

IC50 [8]: 202 µM (active)
Compound: COc1cc2nc(=S)n(CCCN3CCOCC3)c(N)c2cc1OC
